Patent publication US20080234132A1, “Microcin B17 Analogs And Methods For Their Preparation And Use” (priority 2004, published 2008)
≈ marks a conversion by molar mass, not a printed value. *1 amine or outer side, *2 acyl side, *3 side chain or, on linkers, in order; H or OH if unused. Where a SMILES comes first, the peptide text is derived from it. [ ]: non-standard residue; d: D form. X1 = O=C(c1ccc(CN[*:1])[nH]1)[*:2]; X2 = O=C(c1c[nH]c(CN[*:1])c1)[*:2]

Experiments:
[1] = molecular target: E. coli DNA gyrase A2B2, W751R mutant (Trp751→Arg in DNA gyrase B subunit) (Escherichia coli, UniProt P0AES4+P0AES6, W751R); details: FIG. 18
Protocol: ATP hydrolysis by DNA gyrase was linked to the oxidation of NADH using a pyruvate Kinase (PK)/lactate dehydrogenase (LDH) coupled enzyme assay and measured at 340 nm on a Spectramax Plus Microplate. The ATPase assay was similar to that described previously by Pierrat & Maxwell, 2005. Each 100 μL reaction contained 50 mM Tris.HCl (pH 7.5), 24 mM KCl, 5 mM MgCl2, 6.5% (w/w) glycerol, 4 mM dithiotreitol, 0.4 mM NADH, 0.8 mM phosphorenol-pyruvate, 1% (w/w) PK/LDH mixture (Sigma), 51 nM-153 nM gyrase enzyme and the drug tested at varying concentrations. DMSO was kept constant at 2%. The reactions were measured in the presence or absence of linear DNA pBR322 at fixed concentration of 8.4 nM. Reactions were initiated by the addition of 10 mM Mg.ATP and measured at 25° C. over 1.5 hours.
(§6) DNA-dependent ATPase reactions were tested with the wild type enzyme A2B2 and the W751R mutant enzyme. In these DNA-dependent ATPase assays, the concentration of wild type A2B2 is 51 nM, the concentration of W751R mutant enzyme is 106 nM.

[2] = molecular target: E. coli DNA gyrase A2B2, MG1655 wild type (Escherichia coli, UniProt P0AES4+P0AES6); type: biochemical
Excerpt: ATP hydrolysis by DNA gyrase was linked to the oxidation of NADH using a pyruvate Kinase (PK)/lactate dehydrogenase (LDH) coupled enzyme assay and measured at 340 nm on a Spectramax Plus Microplate. […] DMSO was kept constant at 2%.
(§7) Experimental data were fitted and treated with the following equation:
(§8) where L represents the inhibitor concentration, v represents the rate of the ATPase reaction, and v0 represents the rate in absence of inhibitor. The IC50 is deduced from the equation 2:

[3] = molecular target: Wheatgerm topoisomerase I (Triticum aestivum, UniProt A0A3B6RK19); assay: Wheatgerm topoisomerase I-mediated relaxation assay; type: biochemical
Chain of Wheatgerm topoisomerase I (A0A3B6RK19 entry or part of it): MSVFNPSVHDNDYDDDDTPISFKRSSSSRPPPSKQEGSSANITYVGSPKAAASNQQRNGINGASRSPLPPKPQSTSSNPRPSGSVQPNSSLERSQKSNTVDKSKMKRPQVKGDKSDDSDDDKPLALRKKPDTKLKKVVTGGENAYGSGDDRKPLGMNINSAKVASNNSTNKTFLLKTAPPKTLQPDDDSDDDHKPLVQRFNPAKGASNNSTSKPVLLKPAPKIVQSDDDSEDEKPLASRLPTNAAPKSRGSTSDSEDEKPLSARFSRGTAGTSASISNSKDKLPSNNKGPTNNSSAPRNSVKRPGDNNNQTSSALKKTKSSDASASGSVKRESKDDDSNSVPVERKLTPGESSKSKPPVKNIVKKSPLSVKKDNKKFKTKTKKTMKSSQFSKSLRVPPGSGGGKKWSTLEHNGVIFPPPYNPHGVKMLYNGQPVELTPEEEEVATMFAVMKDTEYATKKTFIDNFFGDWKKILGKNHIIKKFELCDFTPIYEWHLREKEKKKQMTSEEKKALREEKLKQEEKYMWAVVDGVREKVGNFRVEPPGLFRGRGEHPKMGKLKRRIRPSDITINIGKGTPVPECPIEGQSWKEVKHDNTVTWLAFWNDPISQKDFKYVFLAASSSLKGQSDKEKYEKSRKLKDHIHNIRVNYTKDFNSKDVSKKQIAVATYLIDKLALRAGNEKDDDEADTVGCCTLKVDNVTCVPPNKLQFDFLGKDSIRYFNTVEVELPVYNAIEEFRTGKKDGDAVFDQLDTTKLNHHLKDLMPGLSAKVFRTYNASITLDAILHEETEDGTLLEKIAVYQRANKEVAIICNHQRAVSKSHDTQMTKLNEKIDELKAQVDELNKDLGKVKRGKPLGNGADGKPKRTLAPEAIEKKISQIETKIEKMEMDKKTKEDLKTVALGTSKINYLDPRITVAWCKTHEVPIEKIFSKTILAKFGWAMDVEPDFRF
Protocol: Wheatgerm topoisomerase I-mediated relaxation assays were performed as per the manufacturer's instructions. Topoisomerase I (2 nM) was added to reactions containing 50 mM Tris. HCl pH 7.5, 50 mM NaCl, 0.1 mM EDTA, 1 mM DTT, 20% glycerol, 4.6 nM of […] pBR322 DNA, and inhibitor where appropriate.
(§1) All in vitro reactions were incubated at 37° C. for 30 minutes. The DMSO concentration in each reaction was kept constant at 3.33%. Reactions were quenched with the addition of an equal volume of phenol/chloroform/isoamyl alcohol (25:24:1) and one tenth volume of loading buffer containing 40% sucrose, 100 mM Tris.HCl pH 7.5, 100 mM EDTA, 2 mg/mL bromophenol blue. The proteins were precipitated by vortexing, followed by centrifugation for 5 minutes at 16 000 g. The aqueous phase was loaded onto 1% agarose gels in Tris-acetate and were electrophoresed at 60 V for three hours in Tris-acetate buffer. The gels were stained in 1 μg/mL ethidium bromide. The gels were visualised using UV light and were documented and analysed using Syngene software.

DNA gyrase = DNA gyrase (Escherichia coli, UniProt P0AES4+P0AES6); type: biochemical, E. coli; details: for Cleavage (IC50 μM): Table 4
Protocol: GyrA and GyrB were added to solutions containing 35 mM Tris.HCl (pH, 7.5), 24 mM KCl, 4 mM MgCl2, 1.8 mM spermidine, 6.5% glycerol, 0.36 mg/mL BSA, 9 μg/mL tRNA, 5 mM DTT, 2 mM ATP and 10 nM relaxed pBR322 DNA. […] The reactions were incubated at 25° C., and at each time point 30-μl aliquots were quenched with 1 μL of 10% SDS and 2 μL of 2 mg/ml proteinase K. Quenched aliquots were kept on ice until the experiment was completed, at which time they were incubated at 37° C. for half an hour. An equal volume of chloroform/isoamyl alcohol (24:1) and a half volume of loading buffer STEB (40% sucrose/100 mM Tris HCl, pH 7.5/1 mM EDTA/2 mg/ml bromophenol blue) were added, and the mixtures then were vortexed and centrifuged for 1 min at 13,000 rpm. The aqueous phase was loaded onto 1% agarose, TAE (40 mM Tris-acetate, 1 mM EDTA) gels that contained 1 μg/ml ethidium bromide and were run at either 30 V overnight in TAE containing 1 μg/ml ethidium bromide (in the cold room) or 70 V for 2.5 hours in TAE containing 1 μg/ml ethidium bromide.

Human topoisomerase IIα [4] = molecular target: T1, Human topoisomerase IIα (Homo sapiens, UniProt P11388); assay: Human Topoisomerase IIα-mediated relaxation assay; type: biochemical; parameters: purchased TopoGEN Inc. (Port Orange, Fla., USA); details: Topo IIα Human, R (relaxation reaction) IC50
T1 sequence (P11388 whole entry): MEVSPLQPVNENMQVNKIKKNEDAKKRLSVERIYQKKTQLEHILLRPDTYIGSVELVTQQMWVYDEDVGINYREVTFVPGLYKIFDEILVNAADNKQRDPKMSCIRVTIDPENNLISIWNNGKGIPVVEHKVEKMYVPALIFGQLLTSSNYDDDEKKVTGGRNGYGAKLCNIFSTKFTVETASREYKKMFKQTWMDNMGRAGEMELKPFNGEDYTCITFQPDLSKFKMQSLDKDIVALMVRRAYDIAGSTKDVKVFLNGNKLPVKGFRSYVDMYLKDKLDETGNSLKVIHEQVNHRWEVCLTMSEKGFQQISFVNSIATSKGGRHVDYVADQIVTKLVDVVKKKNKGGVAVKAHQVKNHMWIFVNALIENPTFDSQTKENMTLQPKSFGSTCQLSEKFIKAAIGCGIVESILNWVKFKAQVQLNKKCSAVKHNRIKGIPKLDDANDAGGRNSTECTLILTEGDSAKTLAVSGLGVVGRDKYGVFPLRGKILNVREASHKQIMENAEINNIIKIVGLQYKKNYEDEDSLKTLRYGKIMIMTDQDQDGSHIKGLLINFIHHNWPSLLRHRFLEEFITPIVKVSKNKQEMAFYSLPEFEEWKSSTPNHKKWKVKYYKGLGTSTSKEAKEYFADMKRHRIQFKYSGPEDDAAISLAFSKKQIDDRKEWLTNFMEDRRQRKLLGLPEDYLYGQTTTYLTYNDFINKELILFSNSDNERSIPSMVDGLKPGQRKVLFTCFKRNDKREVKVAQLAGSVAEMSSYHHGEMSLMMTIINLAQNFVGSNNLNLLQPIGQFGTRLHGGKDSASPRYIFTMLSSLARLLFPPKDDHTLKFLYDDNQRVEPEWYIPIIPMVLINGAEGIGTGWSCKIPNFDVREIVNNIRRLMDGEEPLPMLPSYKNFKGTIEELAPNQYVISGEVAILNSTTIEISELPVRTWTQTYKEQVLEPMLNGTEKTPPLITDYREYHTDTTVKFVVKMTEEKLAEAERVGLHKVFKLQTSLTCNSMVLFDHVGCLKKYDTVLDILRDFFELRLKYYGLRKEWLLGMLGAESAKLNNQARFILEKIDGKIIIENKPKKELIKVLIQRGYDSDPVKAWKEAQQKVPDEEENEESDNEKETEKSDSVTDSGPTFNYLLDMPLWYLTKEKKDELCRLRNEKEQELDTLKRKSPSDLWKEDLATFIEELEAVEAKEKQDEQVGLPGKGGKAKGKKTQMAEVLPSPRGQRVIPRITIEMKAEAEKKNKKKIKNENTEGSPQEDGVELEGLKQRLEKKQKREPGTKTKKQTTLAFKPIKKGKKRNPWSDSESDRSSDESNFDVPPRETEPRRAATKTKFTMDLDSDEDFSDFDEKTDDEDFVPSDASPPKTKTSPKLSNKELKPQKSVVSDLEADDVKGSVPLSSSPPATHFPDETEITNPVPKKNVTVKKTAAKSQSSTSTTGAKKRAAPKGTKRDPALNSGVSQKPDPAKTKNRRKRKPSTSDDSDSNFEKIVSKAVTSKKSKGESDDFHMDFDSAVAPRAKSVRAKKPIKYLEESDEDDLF
Protocol: (§2) Human Topoisomerase IIα-mediated relaxation assays and decatenation assays were performed as per the manufacturer's instructions in a total of 20 μL. Relaxation assays contained Topoisomerase IIα (4.3 nM), 50 mM Tris.HCl pH 8,120 mM KCl, 10 mM MgCl2, 0.5 mM DTT, 0.5 mM ATP, 4.6 nM of supercoiled pBR322 DNA, and inhibitor where appropriate. Decatenation assays substituted the supercoiled DNA with 200 ng catenated kinetoplast DNA.
as §1

[5] = molecular target: DNA gyrase (MG 1655 A2B2) (Escherichia coli, UniProt P0AES4+P0AES6); assay: biochemical; parameters: species or system E. coli
Protocol: (§9) GyrA and GyrB were added to a solution containing 35 mM Tris.HCl (pH, 7.5), 24 mM KCl, 4 mM MgCl2, 1.8 mM spermidine, 6.5% glycerol, 0.36 mg/mL BSA, 9 μg/mL tRNA, 5 mM DTT, 2 mM ATP and 24 nM relaxed pBR322 DNA. […] The reactions were incubated at 25° C., and at each time point 30-μl aliquots were quenched with 1 μL of 10% SDS. An equal volume of chloroform/isoamyl alcohol (24:1) and a half volume of loading buffer STEB (40% sucrose/100 mM Tris.HCl, pH 7.5/100 mM EDTA/2 mg/ml bromophenol blue) were added, and the mixtures then were vortexed and centrifuged for 1 min at 13,000 rpm. The aqueous phase was loaded onto 1% agarose, TAE (40 mM Tris-acetate, 1 mM EDTA) gels and were run at either 30 V overnight in TAE (in the cold room) or 70 V for 2.5 hours. The gels were stained for about 20 min in TAE containing 1 μg/ml ethidium bromide followed by destaining in multiple washes of TAE.

[6] = molecular target: DNA gyrase MG1655 wild type A2B2 (Escherichia coli, UniProt P0AES4+P0AES6); assay: biochemical; parameters: species or system E. coli
Protocol: ATP hydrolysis by DNA gyrase was linked to the oxidation of NADH using a pyruvate Kinase (PK)/lactate dehydrogenase (LDH) coupled enzyme assay and measured at 340 nm on a Spectramax Plus Microplate. […] Each 100 μL reaction contained 50 mM Tris.HCl (pH 7.5), 24 mM KCl, 5 mM MgCl2, 6.5% (w/w) glycerol, 4 mM dithiotreitol, 0.4 mM NADH, 0.8 mM phosphorenol-pyruvate, 1% (w/w) PK/LDH mixture (Sigma), 51 nM-153 nM gyrase enzyme and the drug tested at varying concentrations. DMSO was kept constant at 2%. The reactions were measured in the presence or absence of linear DNA pBR322 at fixed concentration of 8.4 nM. Reactions were initiated by the addition of 10 mM Mg.ATP and measured at 25° C. over 1.5 hours.
as §6, §7, §8

E. coli Topoisomerase IV [7] = molecular target: T2, E. coli Topoisomerase IV (Escherichia coli, UniProt P0AFI2+P20083); assay: biochemical; type: biochemical; parameters: purchased John Innes Enterprises (Norwich, UK)
T2 sequence (P20083 whole entry): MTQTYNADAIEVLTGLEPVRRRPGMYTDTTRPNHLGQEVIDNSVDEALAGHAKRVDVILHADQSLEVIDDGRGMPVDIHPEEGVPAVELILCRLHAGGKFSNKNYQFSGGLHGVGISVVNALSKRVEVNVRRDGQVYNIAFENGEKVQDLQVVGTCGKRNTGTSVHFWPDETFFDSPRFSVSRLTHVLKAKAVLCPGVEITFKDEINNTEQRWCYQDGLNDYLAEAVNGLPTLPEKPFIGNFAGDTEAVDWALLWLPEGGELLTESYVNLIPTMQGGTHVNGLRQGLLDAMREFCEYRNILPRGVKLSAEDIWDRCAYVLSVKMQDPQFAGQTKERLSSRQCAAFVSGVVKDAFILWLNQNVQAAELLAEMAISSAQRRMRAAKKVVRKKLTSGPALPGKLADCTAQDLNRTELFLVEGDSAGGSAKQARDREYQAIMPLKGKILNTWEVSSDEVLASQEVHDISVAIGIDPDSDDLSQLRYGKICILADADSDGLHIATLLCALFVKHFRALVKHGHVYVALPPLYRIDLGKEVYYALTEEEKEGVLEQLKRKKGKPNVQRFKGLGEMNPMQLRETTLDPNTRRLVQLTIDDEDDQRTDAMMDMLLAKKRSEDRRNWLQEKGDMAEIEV
T2 sequence (P0AFI2 whole entry): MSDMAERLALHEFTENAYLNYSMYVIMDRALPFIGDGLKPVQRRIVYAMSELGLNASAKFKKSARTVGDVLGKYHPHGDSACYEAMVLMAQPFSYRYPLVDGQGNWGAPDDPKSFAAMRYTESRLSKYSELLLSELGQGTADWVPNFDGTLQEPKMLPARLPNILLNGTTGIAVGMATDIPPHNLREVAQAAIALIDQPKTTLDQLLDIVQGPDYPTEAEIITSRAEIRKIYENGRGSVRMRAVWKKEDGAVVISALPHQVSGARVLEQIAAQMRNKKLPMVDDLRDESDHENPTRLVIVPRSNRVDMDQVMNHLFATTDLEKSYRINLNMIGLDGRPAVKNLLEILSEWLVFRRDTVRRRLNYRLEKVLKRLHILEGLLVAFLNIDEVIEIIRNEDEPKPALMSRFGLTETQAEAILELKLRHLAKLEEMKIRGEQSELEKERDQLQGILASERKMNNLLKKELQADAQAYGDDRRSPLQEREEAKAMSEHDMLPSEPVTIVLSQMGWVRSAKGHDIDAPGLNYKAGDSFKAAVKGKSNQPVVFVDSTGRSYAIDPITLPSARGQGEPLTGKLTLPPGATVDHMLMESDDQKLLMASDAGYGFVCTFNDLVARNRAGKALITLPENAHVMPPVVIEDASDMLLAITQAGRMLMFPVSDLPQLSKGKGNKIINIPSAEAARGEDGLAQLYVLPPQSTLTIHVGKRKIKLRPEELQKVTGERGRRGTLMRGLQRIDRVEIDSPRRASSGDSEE
Protocol: (§10) Topoisomerase IV-mediated relaxation assays and decatenation assays were performed as previously described (see Peng and Marians, 1993). […] Decatenation assays contained topoisomerase IV (4 nM), 40 mM Tris HCl pH 7.5 at 30° C., 6 mM MgCl2, 10 mM DTT, 1 mM spermidine.HCl, 100 mM potassium glutamate, 0.5 mM ATP, 0.5 mg/mL BSA, 200 ng of kinetoplast DNA, and inhibitor where appropriate.

DNA gyrase W751R A2B2 = DNA gyrase W751R A2B2 (Escherichia coli, UniProt P0AES4+P0AES6, W751R); assay: Supercoiling in vitro assay, W751R mutant enzyme; type: biochemical, E. coli
Protocol: as §9

Human topoisomerase IIα [8] = molecular target: T1, Human topoisomerase IIα; assay: Human Topoisomerase IIα decatenation assay; type: biochemical; parameters: purchased TopoGEN Inc. (Port Orange, Fla., USA)
Protocol: as §2, §1

DNA gyrase A2B2 = DNA gyrase A2B2 (Escherichia coli, UniProt P0AES4+P0AES6); assay: biochemical; type: biochemical, E. coli
Protocol: Relaxation assays were performed in a manner analogous to that described by Pierrat et al., 2005. Briefly, relaxation assays were performed as for the supercoiling assay but with some modifications: ATP and spermidine were omitted. Gyr A and Gyr B were added to a solutions containing 35 mM of Tris.HCl (pH=7.5), 24 mM of KCl, 4 mM of MgCl2, 1.8 mg/mL of spermidine, 6.5% of glycerol, 0.36 mg/mL of BSA, 9 μg/mL of tRNA, 5 mM of DTT, 2 mM of ATP and 24 nM of relaxed pBR322 DNA. […] The amount of DMSO was kept constant at 3.33%. The reactions were incubated at 25° C., and at each time point 30 μL aliquots were quenched with the addition of an equal volume of chloroform/isoamyl alcohol (24:1) and a half volume of loading buffer STEB (40% sucrose/100 mM Tris HCl, pH 7.5/100 mM EDTA/2 mg/mL bromophenol blue). The mixtures then were vortexed and centrifuged for 1 minute at 13,000 rpm. The aqueous phase was loaded onto 1% agarose, TAE (40 mM Tris-acetate, 1 mM EDTA) gels and were run at either 30 V overnight in TAE (in the cold room) or 70 V for 2.5 hours in TAE. The gels were stained for about 20 minutes in TAE containing 1 μg/mL ethidium bromide followed by destaining in multiple washes of TAE. The data were analysed using Syngel software.

E. coli Topoisomerase IV [9] = molecular target: T2, E. coli Topoisomerase IV; assay: biochemical; parameters: purchased John Innes Enterprises (Norwich, UK)
Protocol: as §10

Human topoisomerase I = molecular target: T3, Human topoisomerase I (Homo sapiens, UniProt P11387); assay: Human topoisomerase I-mediated relaxation assay; type: biochemical
T3 construct: purchased TopoGEN Inc. (Port Orange, Fla., USA)
T3 sequence (P11387 1-765): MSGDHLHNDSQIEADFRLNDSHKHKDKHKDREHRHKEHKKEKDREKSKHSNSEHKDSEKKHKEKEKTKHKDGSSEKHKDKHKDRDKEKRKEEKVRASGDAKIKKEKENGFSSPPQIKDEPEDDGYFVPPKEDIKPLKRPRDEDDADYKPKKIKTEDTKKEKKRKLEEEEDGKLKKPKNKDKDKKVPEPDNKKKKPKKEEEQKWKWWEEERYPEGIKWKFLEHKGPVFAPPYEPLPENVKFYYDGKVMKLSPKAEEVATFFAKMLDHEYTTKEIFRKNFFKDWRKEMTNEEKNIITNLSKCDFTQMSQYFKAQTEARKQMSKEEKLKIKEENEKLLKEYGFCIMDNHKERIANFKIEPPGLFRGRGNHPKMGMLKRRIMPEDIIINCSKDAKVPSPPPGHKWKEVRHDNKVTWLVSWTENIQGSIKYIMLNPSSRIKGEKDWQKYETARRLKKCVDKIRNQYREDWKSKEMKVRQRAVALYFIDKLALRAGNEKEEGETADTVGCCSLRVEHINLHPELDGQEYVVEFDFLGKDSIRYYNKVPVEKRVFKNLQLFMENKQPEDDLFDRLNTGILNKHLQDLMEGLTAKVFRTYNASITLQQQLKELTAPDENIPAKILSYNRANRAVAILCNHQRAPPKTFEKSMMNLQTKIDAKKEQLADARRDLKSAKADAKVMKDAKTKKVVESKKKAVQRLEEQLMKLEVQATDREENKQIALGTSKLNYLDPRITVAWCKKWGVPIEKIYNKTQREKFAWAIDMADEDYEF
Protocol: Human topoisomerase I-mediated relaxation assays were performed as per the manufacturer's instructions. Topoisomerase I (2 nM) was added to reactions containing 10 mM of Tris.HCl, pH 7.9, 150 mM NaCl, 100 μM spermidine.HCl, 5% glycerol, 0.1% BSA, 4.6 nM of […] pBR322 DNA, and inhibitor where appropriate.
as §1

[10] = tested on: A. thaliana ecotype Columbia seeds; assay: Seed germination of A. thaliana; type: in vivo, Arabidopsis thaliana
E. coli MG1655 = assay: Halo assay, wild-type E. coli MG1655; type: cell-based
Protocol: Lawns of cells were prepared by spreading, on top of a LB+Agar plate, 3 ml of melted LSS medium (half-agar strength: 0.3 g Agar/50 ml LB) inoculated with 100 μl of a 10 ml LB overnight culture of E. coli cells grown at 37° C. […] The plates were incubated at 37° C. overnight and growth inhibition was qualitatively analysed by measuring the diameter of each halo.

[11] = tested on: Arabidopsis thaliana ecotype Columbia seeds; assay: Seed germination, Arabidopsis thaliana; type: in vivo; details: three week period
Excerpt: Germination begins when the dormant dry seed begins to take up water (imbibition from the surface sterilization process). Primary roots emerge while the seed is in the culture media. Subsequently the hypocotyls emerge and elongate to pull the cotyledons above the culture media surface. After straightening up, the cotyledons arrange into an horizontal position, as shown in the Figure, and, then spread apart in order to expose the first true leaves and the apical meristem (growing tip).
(§3) The microcin derivatives were tested for efficacy in planta against Arabidopsis thaliana ecotype Columbia according to known methods (see Wall et al., 2004). Seeds were germinated on sterile media containing the appropriate peptide and the effects were observed over a three week period. […] In […] seeds, such as A. thaliana, during imbibition the quiescent seed rapidly resumes metabolic and respiratory activity. One of the first steps, as part of this process, is the initiation of mitochondrial DNA synthesis which requires DNA gyrase and which may explain the exquisite sensitivity of the germinating seeds to Peptides 1 and 2.

[12] = tested on: Arabidopsis thaliana ecotype Columbia plants; assay: Effects on A. thaliana seedlings and plants; type: in vivo
Protocol: as §3
(§4) The leaf tissue initially turned yellow, followed by rapid necrosis of the tissue (see FIG. 32). […] The high hydrophility of Peptide 1 may preferentially allow the compound to readily diffuse through the leaf cuticle and epidermis to the mesophyll and phloem below.
(§5) The heterocyclic compounds were also spotted onto the leaves of 4 week old, tissue culture grown Arabidopsis thaliana ecotype Columbia plants (see FIG. 34, panels A-1). […] The browning and necrosis diffused through the full thickness of the leaf over the next 60 minutes (see FIG. 34, panel F) and spread towards the meristem (see FIG. 34, panels E, F, H). Complete necrosis of the meristem and newly emerged leaves, where organellar replication takes place, was complete within 24 hours (see FIG. 34, panel F).

[13] = tested on: Arabidopsis thaliana ecotype Columbia plants; assay: Effects on whole plants/seedlings, Arabidopsis thaliana; type: in vivo
Excerpt: as §4, §5

HT-29 cells = assay: MTT cell viability assay, HT-29; type: cell-based, human; details: Homo sapiens, HT-29; 24 hours, MTT; read-out: In vivo HT29 Cells, approximate IC50
Protocol: (§11) Human cell cultures were initiated from frozen cell stocks (the gift of Dr J. Gavrilovic, UEA). […] Both human cell lines form adherent cultures and were maintained at 37° C. in T25 culture vessels as 10 mL cultures in CO2 Independent Media containing 10% foetal bovine serum (EU approved), 4 mM L-glutamine, penicillin/streptomycin (Invitrogen). […] Media was renewed every three days.
(§12) After incubation with MTT and solubilization, the resulting coloured solution is quantified using a scanning spectrophotometer. […] Cell viability was then determined by addition of MTT reagent (20 μL) in each well, as per manufacturer's instructions and incubated for a further 4 hours. Solubilization solution (100 μL) was added per well and the plates incubated overnight at 37° C. The plates were read in a spectrophotometer (scanning from 500-650 nm, signal peak at 570 nm).

HeLa cells = assay: MTT cell viability assay, HeLa; type: cell-based, human; details: Homo sapiens, HeLa; 24 hours, MTT; read-out: In vivo HeLa Cells, approximate IC50
Protocol: as §11, §12

Human topoisomerase IIα [14] = molecular target: T1, Human topoisomerase IIα; assay: Human topoisomerase IIα-mediated relaxation assay; type: biochemical; parameters: purchased TopoGEN Inc; details: topoisomerase assays (FIG. 27)
Protocol: as §2, §1

[15] = Supercoiling (IC50 μM) MG 1655 A2B2, Table 4

## O=C(O)c1cn(C2CC2)c2cc(N3CCNCC3)c(F)cc2c1=O [Ciprofloxacin]
[1]
  DNA-dependent ATPase, W751R mutant (novobiocin, ciprofloxacin): slow down this ATPase hydrolysis rate of both wild type and mutant enzyme
[2]
  Inhibition of DNA-dependent ATPase: slow down this ATPase hydrolysis rate of both wild type and mutant enzyme

## CC(NC(=O)CNC(=O)CNC(=O)c1ccc(CNC(=O)C(C)NC(=O)CNC(=O)C(N)CCC(N)=O)[nH]1)C(=O)O (centres unmarked) [Peptide 1] (H-QGA[X1]GGA-OH; configuration not given here)
[3]
  Topo I Wheatgerm IC50: inhibited
DNA gyrase
  Cleavage (IC50 μM): inactive
Human topoisomerase IIα [4]
  IC50: < 20 µM
[5]; [15]
  IC50: 68 µM
[5]; inhibition of supercoiling IC50, [A2B2] 13.2 nM, incubated up to 4 h
  IC50: < 75 µM
[6]
  IC50: 37 µM
[6]; Table 4
  ATPase % inhibition at saturation: 15%
E. coli Topoisomerase IV [7]
  Topo IV, D (decatenation reaction) IC50: exquisitely sensitive
DNA gyrase W751R A2B2
  IC50: > 200 µM
Human topoisomerase IIα [8]
  Topo IIα Human, D (decatenation reaction) IC50: exquisitely sensitive
DNA gyrase A2B2
  IC50: 68 µM
E. coli Topoisomerase IV [9]
  IC50: < 10 µM
Solubility
  times more soluble than MccB17: at least 20 times
Solubility; water with 2% DMSO
  solubility: 1000 µM (≈ 582 µg/mL)
Human topoisomerase I
  Topo I Human IC50: inhibited

## C[C@H](NC(=O)CNC(=O)CNC(=O)c1c[nH]c(CNC(=O)[C@H](C)NC(=O)CNC(=O)[C@@H](N)CCC(N)=O)c1)C(=O)O [Peptide 2] (H-QGA[X2]GGA-OH)
DNA gyrase; Peptide 1 at 100 μM, [A2B2]=30 nM, up to 1 h
  stabilisation of the cleaved DNA-enzyme (cleavage) complex: Neither Peptide 1 nor Peptide 2 stabilise
DNA gyrase
  Cleavage (IC50 μM): inactive
[5]; FIG. 13
  supercoiling activity relative to Peptide 1: about half as active as Peptide 1
[5]; [15]
  IC50: > 100 µM
[10]; 100 μM
  effect on seed germination: only a bleaching effect
[10]; 150 μM
  effect on seed germination: seed germination occurred but the growth is slower compared with the untreated seeds
[10]; 200 μM
  effects on 6-week old seedlings and germinating seeds: the same as the effects observed for 100 μM Peptide 1
[10]; concentrations tested
  activity against seed germination: able to inhibit germination
[10]; in vivo
  potency relative to Peptide 1 in plant assays: half the potency of Peptide 1
E. coli MG1655
  haloassay activity relative to Peptide 1: twice less active than Peptide 1
[11]
  Inhibition of seed germination: able to inhibit germination of the seeds
[12]; 100 μM Peptide 1, 200 μM Peptide 2
  effect on 4-week old plants transferred to media containing the compound: induced tumourous, undifferentiated cell growth
[12]; in vivo
  effect on 6-week old seedlings: induces tumour-like growth
[13]; 200 μM
  Effect on 4-week old plants: induced tumourous, undifferentiated cell growth in the meristematic region and petioles
[13]; observed at 150 μM (FIG. 26)
  effect on 6-week old seedlings: induces tumour-like growth near the apical meristem zone
DNA gyrase A2B2
  IC50: > 100 µM
DNA gyrase A2B2; A2B2 70 nM, MccB17 tested at 25 μM
  concentration at which the relaxation reaction is inhibited: 200 µM
Solubility; water
  solubility: 1000 µM (≈ 582 µg/mL)

## NCc1nc(C(=O)O)cs1 [deBoc-thiazole]
HT-29 cells
  IC50: ~15 µM
HeLa cells
  IC50: ~75 µM
Human topoisomerase IIα [14]
  IC50 of deBoc-thiazole compared with thiazole compound: no difference to the calculated IC50 values
